Test results from ChEMBL document CHEMBL6074689 (Eur J Med Chem, 2025).
Active and inactive are the calls of the source. The calls are words filed in the database; no cut-off is given here.

Columns and labels:
[1] = biological target: T1, Acetylcholinesterase (Homo sapiens, UniProt P22303); assay: Inhibition of human recombinant AChE expressed in HEK293 cells using acetylthiocholine iodide as substrate preincubated with compound for 30 mins followed by substrate addition and measured after 30 mins by DTNB reagent based Ellman's method
T1 sequence (P22303 whole entry): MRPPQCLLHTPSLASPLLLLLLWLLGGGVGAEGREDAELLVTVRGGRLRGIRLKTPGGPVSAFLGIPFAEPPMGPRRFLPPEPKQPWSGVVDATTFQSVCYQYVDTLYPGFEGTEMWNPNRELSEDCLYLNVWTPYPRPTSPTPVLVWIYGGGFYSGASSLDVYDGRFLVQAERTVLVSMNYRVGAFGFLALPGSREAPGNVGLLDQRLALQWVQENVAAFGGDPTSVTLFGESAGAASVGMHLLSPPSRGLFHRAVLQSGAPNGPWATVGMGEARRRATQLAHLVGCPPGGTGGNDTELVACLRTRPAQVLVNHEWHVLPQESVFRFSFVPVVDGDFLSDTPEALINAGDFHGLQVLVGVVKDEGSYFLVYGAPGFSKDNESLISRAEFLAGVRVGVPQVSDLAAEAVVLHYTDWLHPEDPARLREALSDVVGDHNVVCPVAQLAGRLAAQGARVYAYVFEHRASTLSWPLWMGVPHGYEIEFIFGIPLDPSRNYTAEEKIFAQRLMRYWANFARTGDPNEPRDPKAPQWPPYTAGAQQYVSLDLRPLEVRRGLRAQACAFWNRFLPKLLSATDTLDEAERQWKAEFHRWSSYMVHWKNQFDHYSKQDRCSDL

[2] = biological target: Cholinesterase (Equus caballus, UniProt P81908); assay: Inhibition of equine serum BChE using acetylthiocholine iodide as substrate preincubated with compound for 30 mins followed by substrate addition and measured after 30 mins by DTNB reagent based Ellman's method
Chain of Cholinesterase (P81908 whole entry, the tested form may be a part): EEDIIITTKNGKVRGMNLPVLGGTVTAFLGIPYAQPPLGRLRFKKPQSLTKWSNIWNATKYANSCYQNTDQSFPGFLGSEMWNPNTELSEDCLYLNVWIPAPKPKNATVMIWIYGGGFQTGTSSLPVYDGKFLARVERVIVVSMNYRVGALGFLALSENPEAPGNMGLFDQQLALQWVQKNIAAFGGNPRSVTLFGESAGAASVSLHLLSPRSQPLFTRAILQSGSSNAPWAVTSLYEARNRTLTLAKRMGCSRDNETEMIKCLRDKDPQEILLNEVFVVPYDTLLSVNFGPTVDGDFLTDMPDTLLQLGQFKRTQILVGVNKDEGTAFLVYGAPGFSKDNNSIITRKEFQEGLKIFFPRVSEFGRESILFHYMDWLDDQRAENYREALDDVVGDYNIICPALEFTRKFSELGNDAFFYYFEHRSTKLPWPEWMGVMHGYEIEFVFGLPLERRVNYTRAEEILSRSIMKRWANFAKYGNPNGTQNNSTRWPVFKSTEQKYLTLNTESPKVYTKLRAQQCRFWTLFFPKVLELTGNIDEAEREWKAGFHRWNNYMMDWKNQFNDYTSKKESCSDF

[3] = tested on: Drosophila melanogaster; assay: Anti-alzheimer activity in ey-GAL4 driven UAS-amyloid beta (1 to 42) induced Drosophila melanogaster Oregon R-positive assessed as severe eye phenotype at 50 uM by Stereo zoom microscopic imaging analysis relative to control; type: functional
[4] = tested on: Drosophila melanogaster; assay: Anti-alzheimer activity in ey-GAL4 driven UAS-amyloid beta (1 to 42) induced Drosophila melanogaster Oregon R-positive assessed as rescued eye phenotype at 100 uM by Stereo zoom microscopic imaging analysis relative to control; type: functional
[5] = Antioxidant activity assessed as DPPH radical scavenging activity at 200 uM incubated for 30 mins relative to control; type: functional
[6] = tested on: Drosophila melanogaster; assay: Anti-alzheimer activity in ey-GAL4 driven UAS-amyloid beta (1 to 42) induced Drosophila melanogaster Oregon R-positive assessed as reduction in superoxide level at 100 uM by fluorescence based analysis; type: functional, organism-based
[7] = tested on: Drosophila melanogaster; assay: Inhibition of oxidative stress in y-GAL4 driven UAS-amyloid beta (1 to 42) induced Drosophila melanogaster Oregon R-positive assessed as reduction in ROS level at 50 uM incubated for 30 mins by H2DCFDA staining based analysis; type: functional, organism-based
[8] = Toxicity in Drosophila melanogaster Oregon R-positive assessed as reduction in eclosed flies at 400 uM measured for 15 days relative to control; set-up: scale not given: the % may be the effect or the level left; conditions: 360 h, time 15 day
[9] = tested on: Drosophila melanogaster; assay: Anti-alzheimer activity in ey-GAL4 driven UAS-amyloid beta (1 to 42) induced Drosophila melanogaster Oregon R-positive assessed as mild eye phenotype at 100 uM by Stereo zoom microscopic imaging analysis relative to control; type: functional
[10] = biological target: T1, Acetylcholinesterase; assay: Displacement of propidium iodide from human AChE PAS assessed as reduction in fluorescence intensity at 0.01 uM incubated for 6 hrs by fluorescence based analysis relative to control; set-up: scale not given: the % may be the effect or the level left
[11] = Toxicity in Drosophila melanogaster Oregon R-positive assessed as reduction in eclosed flies at 100 uM measured for 15 days relative to control; set-up: scale not given: the % may be the effect or the level left; conditions: 360 h, time 15 day
[12] = biological target: T1, Acetylcholinesterase; assay: Displacement of propidium iodide from human AChE PAS assessed as reduction in fluorescence intensity at 5 uM incubated for 6 hrs by fluorescence based analysis relative to control; set-up: scale not given: the % may be the effect or the level left
[13] = Toxicity in Drosophila melanogaster Oregon R-positive assessed as reduction in eclosed flies at 50 uM measured for 15 days relative to control; set-up: scale not given: the % may be the effect or the level left; conditions: 360 h, time 15 day
[14] = tested on: Drosophila melanogaster; assay: Anti-alzheimer activity in ey-GAL4 driven UAS-amyloid beta (1 to 42) induced Drosophila melanogaster Oregon R-positive assessed as mild eye phenotype at 50 uM by Stereo zoom microscopic imaging analysis relative to control; type: functional
[15] = tested on: Mus musculus; assay: Antialzheimer activity in scopolamine-induced Swiss albino mouse model assessed as reduction in BChE level at 3 mg/kg, po preincubated with compound for 30 mins followed by scopolamine induction and measured after 30 mins; type: functional, organism-based; conditions: time 1.0 hrs
[16] = tested on: Mus musculus; assay: Antialzheimer activity in scopolamine-induced Swiss albino mouse model assessed as improvement in memory retention by measuring time spent in platform quadrant at 3 mg/kg, po preincubated with compound for 30 mins followed by scopolamine induction and measured after 5 days by Morris water maze test; type: functional, organism-based; conditions: time 7230.0 min
[17] = biological target: T1, Acetylcholinesterase; assay: Displacement of propidium iodide from human AChE PAS assessed as reduction in fluorescence intensity at 1 uM incubated for 6 hrs by fluorescence based analysis relative to control; set-up: scale not given: the % may be the effect or the level left
[18] = tested on: Mus musculus; assay: Antioxidant activity against scopolamine-induced Swiss albino mouse model assessed as increase in SOD level at 3 mg/kg, po by absorbance based analysis; type: functional, organism-based
[19] = biological target: T1, Acetylcholinesterase; assay: Displacement of propidium iodide from human AChE PAS assessed as reduction in fluorescence intensity at 0.1 uM incubated for 6 hrs by fluorescence based analysis relative to control; set-up: scale not given: the % may be the effect or the level left
[20] = Toxicity in Drosophila melanogaster Oregon R-positive assessed as reduction in eclosed flies at 200 uM measured for 15 days relative to control; set-up: scale not given: the % may be the effect or the level left; conditions: 360 h, time 15 day

What does the source list for `COc1ccc2[nH]cc(CCNC(=O)Oc3cccc(C(C)N(C)C)c3)c2c1` (stereo not drawn)?
IC50 [1]: 48.3 nM; IC50 [2]: 13.6 nM

What does the source list for `CCN(C)C(=O)Oc1cccc([C@H](C)N(C)C)c1` [RIVASTIGMINE]?
Activity [3]: 23%; Activity [4]: 33%; Activity [5]: 3.71%; Activity [6]: Active; Activity [7]: Active; Activity [8]: 29%; Activity [9]: 40%; Activity [10]: 1.61%; Activity [11]: 95%; Activity [12]: 8.74%; Activity [13]: 108%; Activity [14]: 43%; Activity [15]: Active; Activity [16]: Active; Activity [17]: 6.3%; Activity [18]: Active; Activity [19]: 2.96%; Activity [20]: 73%

Which IC50 [1] does the source give for `CC(c1cccc(OC(=O)NCCc2c[nH]c3ccccc23)c1)N(C)C` (stereo not drawn) here?
The IC50 was 24.5 nM.

And the IC50 [2]?
The IC50 was 14.8 nM.

Which results are given for `C[C@H](c1cccc(OC(=O)NCCc2c[nH]c3ccc(Cl)cc23)c1)N(C)C`?
IC50 [1]: 8.38 nM; IC50 [2]: 7.66 nM

For `CC(c1cccc(OC(=O)NCCc2c[nH]c3ccc(O)cc23)c1)N(C)C` (stereo not drawn), which IC50 [1] is on record?
Its IC50 is 2.31 nM.

And the IC50 [2]?
Its IC50 is 55.8 nM.

With `Cc1ccc2[nH]cc(CCNC(=O)Oc3cccc(C(C)N(C)C)c3)c2c1` (stereo not drawn) as the compound, how does the IC50 [1] read?
The IC50 was 73.3 nM.

What about the IC50 [2] of the same compound?
The IC50 was 38.7 nM.
